Laboratory results as given in article PMC6112376, “Comprehensive Analyses and Prioritization of Tox21 10K Chemicals Affecting Mitochondrial Function by in-Depth Mechanistic Studies” (Environmental Health Perspectives, 2018).
Read-outs that look alike come from different tables or passages of the source.

What was measured:
[1] = system: HeLa cells expressing YFP-Parkin; assay: Parkin translocation assay; type: cell-based, human
HepG2 cells [2] = assay: ROS-Glo hydrogen peroxide (ROS) assay; type: cell-based, human; settings: Homo sapiens, read-out: ROS (HepG2) EC50
HepG2 cells [3] = assay: Intracellular ATP content (cell viability) assay; type: cell-based, human; settings: for IC50: Homo sapiens, HepG2
[4] = system: Caenorhabditis elegans (Bristol N2); assay: C. elegans larval development and growth assay; settings: for minimal effective concentration: Caenorhabditis elegans, read-out: LEC EXT: lowest effect concentration for extinction, a measure of nematode size
[5] = system: Nrf2/ARE (ARE-bla HepG2 cells); assay: ARE β-lactamase reporter gene assay; type: cell-based, human; settings: Homo sapiens, read-out: ARE (HepG2) EC50
rat primary hepatocytes [6] = assay: MMP assay in rat primary hepatocytes; settings: for Rat hepatocytes (efficacy) (MMP): % of positive control, mean±SD of three experiments; for IC50: Rattus norvegicus, Hepatocyte; for MMP assays efficacy (%) Rat Hepatocytes: mean ± SD of three experiments
[7] = system: p53 (p53-bla HCT-116 cells); assay: p53 β-lactamase reporter gene assay; type: cell-based, human
[8] = system: Caenorhabditis elegans strain PE255; assay: In vivo C. elegans ATP status assay; settings: for minimal effective concentration: Caenorhabditis elegans, read-out: LEC LUM: lowest effect concentration for luminescence, a measure of nematode ATP content
hNSC = assay: MMP assay in human neural stem cells (hNSC); type: cell-based; settings: Homo sapiens, Neural stem cell; 1 h treatment; fresh re-sourced stocks; mean±SD of three experiments; read-out: hNSC IC50 (MMP)
[9] = system: isolated rat liver mitochondria; assay: Oxygen consumption, Clark-type oxygen electrode; type: biochemical
HepG2 cells [10] = settings: cited from earlier work
HepG2 cells [11] = assay: cells; settings: Homo sapiens; for Emax: HepG2, read-out: MMP assays efficacy (%) HepG2
rat primary hepatocytes [12] = system: rat primary hepatocytes
HepG2 cells [13] = system: HepG2 cells
[14] = HeLa cells stably expressing YFP-Parkin, treated for 2 h
[15] = HepG2, 2 h treatment, mean±SD of three experiments
[16] = HepG2, 16 h incubation, mean±SD of three experiments
[17] = 1 h, read-out: Rat hepatocytes IC50 (MMP)
[18] = read-out: MMP assays IC50 (µM) Rat Hepatocytes
[19] = 16 h incubation, mean±SD of three experiments
[20] = 100 µM, glutamate/malate driven state 3 respiration, isolated rat liver mitochondria
[21] = 100 µM, glutamate/malate driven state 4 respiration, isolated rat liver mitochondria
[22] = 100 µM, succinate-driven state 3 respiration, isolated rat liver mitochondria
[23] = 100 µM, succinate-driven state 4 respiration, isolated rat liver mitochondria
[24] = mitochondrial respiration in isolated rat liver mitochondria, Clark type oxygen electrode, over tested concentrations
[25] = read-out: MMP assays IC50 (µM) qHTS-HepG2
[26] = HepG2, 1 h, read-out: HepG2 IC50 Galactose (MMP)
[27] = HepG2, 1 h, read-out: HepG2 IC50 Glucose (MMP)
[28] = HepG2, read-out: MMP assays IC50 (µM) HepG2

Nc1ccc2c(c1)C(=O)c1ccccc1C2=O [2-Aminoanthraquinone]
Parkin recruitment [1, 14]: Inactive | EC50 (HepG2 cells [2]; [15]): 4.72 ± 0.8 µM | ATP (HepG2, glucose) IC50 (HepG2 cells [3]; 5 mM glucose, 40 h treatment, mean±SD of three experiments): Inactive | ATP (HepG2, galactose) IC50 (HepG2 cells [3]; 10 mM galactose, 40 h treatment, mean±SD of three experiments): Inactive | EXT: mean difference in nematode size relative to plate controls ([4]; 0.5 µM): 0.000738 | EXT: mean difference in nematode size relative to plate controls ([4]; 1 µM): 0.7865 | EXT: mean difference in nematode size relative to plate controls ([4]; 5 µM): 0.06113 | EXT: mean difference in nematode size relative to plate controls ([4]; 10 µM): 0.09116 | EXT: mean difference in nematode size relative to plate controls ([4]; 25 µM): 0.03934 | EXT: mean difference in nematode size relative to plate controls ([4]; 50 µM): 0.4385 | EXT: mean difference in nematode size relative to plate controls ([4]; 75 µM): 0.2071 | EXT: mean difference in nematode size relative to plate controls ([4]; 100 µM): 0.2541 | minimal effective concentration [4]: 100 µM | EC50 [5, 16]: 3.93 ± 0.89 µM | Rat hepatocytes (efficacy) (MMP) (rat primary hepatocytes [6]): −58.3±7.52% | IC50 (rat primary hepatocytes [6]; [17]): 9.63 ± 3.17 µM | IC50 (rat primary hepatocytes [6]; [18]): 3.57 ± 2.61 µM | MMP assays efficacy (%) Rat Hepatocytes (rat primary hepatocytes [6]): -91±30% | p53 (HCT-116) EC50 [7, 19]: Inactive | LUM: mean difference in luminescence (ATP content) relative to plate controls ([8]; 0.5 µM): 0.5241 | LUM: mean difference in luminescence (ATP content) relative to plate controls ([8]; 1 µM): 1.069 | LUM: mean difference in luminescence (ATP content) relative to plate controls ([8]; 5 µM): 1.958 | LUM: mean difference in luminescence (ATP content) relative to plate controls ([8]; 10 µM): 1.846 | LUM: mean difference in luminescence (ATP content) relative to plate controls ([8]; 25 µM): 1.929 | LUM: mean difference in luminescence (ATP content) relative to plate controls ([8]; 50 µM): 1.555 | LUM: mean difference in luminescence (ATP content) relative to plate controls ([8]; 75 µM): 1.569 | LUM: mean difference in luminescence (ATP content) relative to plate controls ([8]; 100 µM): 1.98 | LEC (lowest effect concentration), ATP assay ([8]; 24 h exposure): ≤ 10 µM | minimal effective concentration [8]: 0.5 µM | IC50 (hNSC): 1.8 ± 0.83 µM | I-ADP, % of control (O2 consumption rate) [9, 20]: 101 (53.8) % of control | I-sub, % of control (O2 consumption rate) [9, 21]: 98 (13.2) % of control | II-ADP, % of control (O2 consumption rate) [9, 22]: 124 (83.8) % of control | II-sub, % of control (O2 consumption rate) [9, 23]: 107 (23.2) % of control | Potential Mechanism [9, 24]: Inactive | MMP assays efficacy (%) qHTS-HepG2 (HepG2 cells [10]): -85±11% | IC50 (HepG2 cells [10]; [25]): 0.51 ± 0.29 µM | IC50 (HepG2 cells [11]; [26]): 8.98 ± 1.62 µM | IC50 (HepG2 cells [11]; [27]): 6.58 ± 0.9 µM | IC50 (HepG2 cells [11]; [28]): 1.26 µM | Emax (HepG2 cells [11]): 85%

NNc1nc(-c2ccc(N)cc2)cs1 [2-Hydrazino-4-(4-aminophenyl) thiazole]
Parkin recruitment [1, 14]: Inactive | EC50 (HepG2 cells [2]; [15]): 25.4 ± 3.24 µM | IC50 (HepG2 cells [3]; 5 mM glucose, 40 h treatment, mean±SD of three experiments, read-out: ATP (HepG2, glucose) IC50): 59.5 ± 23.5 µM | IC50 (HepG2 cells [3]; 10 mM galactose, 40 h treatment, mean±SD of three experiments, read-out: ATP (HepG2, galactose) IC50): 60.8 ± 6.99 µM | EXT: mean difference in nematode size relative to plate controls ([4]; 0.5 µM): 0.05389 | EXT: mean difference in nematode size relative to plate controls ([4]; 1 µM): 0.002943 | EXT: mean difference in nematode size relative to plate controls ([4]; 5 µM): -0.00605 | EXT: mean difference in nematode size relative to plate controls ([4]; 10 µM): 0.1893 | EXT: mean difference in nematode size relative to plate controls ([4]; 25 µM): 0.2089 | EXT: mean difference in nematode size relative to plate controls ([4]; 50 µM): 0.1347 | EXT: mean difference in nematode size relative to plate controls ([4]; 75 µM): 0.3557 | EXT: mean difference in nematode size relative to plate controls ([4]; 100 µM): 0.3701 | minimal effective concentration [4]: 25 µM | EC50 [5, 16]: 10.5 ± 8.1 µM | Rat hepatocytes (efficacy) (MMP) (rat primary hepatocytes [6]): −50.5±1.77% | IC50 (rat primary hepatocytes [6]; [17]): 19.8 ± 11.5 µM | IC50 (rat primary hepatocytes [6]; [18]): 3.55 ± 3.86 µM | MMP assays efficacy (%) Rat Hepatocytes (rat primary hepatocytes [6]): -67±14% | p53 (HCT-116) EC50 [7, 19]: Inactive | LUM: mean difference in luminescence (ATP content) relative to plate controls ([8]; 0.5 µM): 0.02471 | LUM: mean difference in luminescence (ATP content) relative to plate controls ([8]; 1 µM): 0.06159 | LUM: mean difference in luminescence (ATP content) relative to plate controls ([8]; 5 µM): 0.05233 | LUM: mean difference in luminescence (ATP content) relative to plate controls ([8]; 10 µM): 0.08412 | LUM: mean difference in luminescence (ATP content) relative to plate controls ([8]; 25 µM): 0.4284 | LUM: mean difference in luminescence (ATP content) relative to plate controls ([8]; 50 µM): 0.3261 | LUM: mean difference in luminescence (ATP content) relative to plate controls ([8]; 75 µM): 0.5564 | LUM: mean difference in luminescence (ATP content) relative to plate controls ([8]; 100 µM): 0.6002 | minimal effective concentration [8]: 25 µM | IC50 (hNSC): 1.76 ± 0.57 µM | I-ADP, % of control (O2 consumption rate) [9, 20]: 105 (55.7) % of control | I-sub, % of control (O2 consumption rate) [9, 21]: 109 (14.6) % of control | II-ADP, % of control (O2 consumption rate) [9, 22]: 101 (68.1) % of control | II-sub, % of control (O2 consumption rate) [9, 23]: 98 (21.3) % of control | Potential Mechanism [9, 24]: Inactive | MMP assays efficacy (%) qHTS-HepG2 (HepG2 cells [10]): -83±12% | IC50 (HepG2 cells [10]; [25]): 0.06 ± 0.02 µM | IC50 (HepG2 cells [11]; [26]): 18.5 ± 2.55 µM | IC50 (HepG2 cells [11]; [27]): 15.3 ± 1.76 µM | IC50 (HepG2 cells [11]; [28]): 0.4 µM | Emax (HepG2 cells [11]): 85%

CO[C@H]1/C=C/O[C@@]2(C)Oc3c(C)c(O)c4c(O)c(c(/C=N/N5CCN(C)CC5)c(O)c4c3C2=O)NC(=O)/C(C)=C\C=C\[C@H](C)[C@H](O)[C@@H](C)[C@@H](O)[C@@H](C)[C@H](OC(C)=O)[C@@H]1C [Rifampicin, reference compound]
Parkin recruitment [1]: Inactive | EC50 (HepG2 cells [2]; HepG2, 2 h): 34.5 µM | MMP assays efficacy (%) Rat Hepatocytes (rat primary hepatocytes [12]): -68±40% | Rat hepatocytes (efficacy) (MMP) (rat primary hepatocytes [12]): 41.4±5.71 ( −97.5±6.10 ) % | ATP (HepG2, galactose) IC50 (HepG2 cells [3]): Inactive | ATP (HepG2, glucose) IC50 (HepG2 cells [3]): Inactive | EC50 ([5]; HepG2, 16 h): 45.2 µM | IC50 (rat primary hepatocytes [6]; [17]): 41.4 µM | IC50 (rat primary hepatocytes [6]; [18]): 6.15 ± 2.2 µM | p53 (HCT-116) EC50 [7]: Inactive | HepG2 IC50 Galactose (MMP) (HepG2 cells [13]): Inactive | Potential Mechanism [9]: Inactive | I-ADP, % of control (O2 consumption rate) ([9]; 4 µM): 85 (46.4) % of control | I-sub, % of control (O2 consumption rate) ([9]; 4 µM): 89 (11.7) % of control | II-ADP, % of control (O2 consumption rate) ([9]; 4 µM): 95 (83.4) % of control | II-sub, % of control (O2 consumption rate) ([9]; 4 µM): 96 (23.5) % of control | I-ADP, % of control (O2 consumption rate) ([9]; 20 µM): 71 (39.1) % of control | I-sub, % of control (O2 consumption rate) ([9]; 20 µM): 86 (11.3) % of control | II-ADP, % of control (O2 consumption rate) ([9]; 20 µM): 95 (84.2) % of control | II-sub, % of control (O2 consumption rate) ([9]; 20 µM): 107 (26.2) % of control | MMP assays efficacy (%) qHTS-HepG2 (HepG2 cells [10]): -94±13% | IC50 (HepG2 cells [10]; read-out: MMP assays IC50 (µM), qHTS-HepG2): 25.1 ± 6.38 µM | IC50 (HepG2 cells [11]; [27]): 63.2 µM | IC50 (HepG2 cells [11]; [28]): 15.5 µM | Emax (HepG2 cells [11]): 85%
